Earlier results, collected in US20250367137A1, “Phloroglucinol Formulations And Methods Of Use” (priority 2022, published 2025).

Test system: irritable bowel syndrome (IBS) sufferers
Conditions: placebo-controlled trials

## Oc1cc(O)cc(O)c1 [phloroglucinol]
  improvement in pain and stool frequency: statistically significant improvement
